Each structure is given as a SMILES string. Read-outs that look alike come from different tables or passages of the source.

This is an account of results in publication PMC8856729 (Bioorganic & Medicinal Chemistry Letters, 2022).

The assay deals with SARS-CoV-2 M^pro variants (all mutants and the WT). It counts as biochemical.

As to `CC(C)(C)[C@H](NC(=O)C(F)(F)F)C(=O)N1C[C@H]2[C@@H]([C@H]1C(=O)N[C@H](C#N)C[C@@H]1CCNC1=O)C2(C)C` [nirmatrelvir], the inhibition entry (0.005 µM) is “below 50%” and the inhibition result (0.02 µM) is listed as “over 50%”. Moreover, the “inhibition of enzymatic activity” value (0.1 µM) is “fully inhibited”.
